Measured values from patent US20060069132A1, “Azolecarboxamide herbicides” (priority 2004, published 2006).

Legend:
corn = assay: Test C pre-/postemergence herbicide test; assay type: in vivo, Zea mays
In short: (§1)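 Emerged plants at the 1- to 4-leaf stage (2–18 cm), or freshly planted seeds, received test chemicals in a non-phytotoxic solvent mixture with surfactant. Response was visually scored against controls after 12 to 14 days in the greenhouse, on a 0 (no effect) to 100 (complete control) scale.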

common ragweed = assay: Test C pre-/postemergence herbicide test; assay type: in vivo, Ambrosia elatior; set-up: key to Plant response rating, Ragweed: 0 = no effect, 100 = complete control
In short: as §1

barnyardgrass = assay: Test C flooded paddy test; assay type: in vivo, Echinochloa crus-galli
In short: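 Visual rating, 0 (no effect) to 100 (complete control), vs. controls at 12–14 d in greenhouse. Postemergence: 1–4-leaf plants, 2–18 cm. Paddy: flooded, barnyardgrass at 2-leaf stage.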

large crabgrass = assay: Test C pre-/postemergence herbicide test; assay type: in vivo, Digitaria sanguinalis
In short: as §1

ducksalad = assay: Test C flooded paddy test; assay type: in vivo, Heteranthera limosa
eastern black nightshade = assay: Test C pre-/postemergence herbicide test; assay type: in vivo, Solanum ptycanthum
In short: as §1

velvetleaf = assay: Test C pre-/postemergence herbicide test; assay type: in vivo, Abutilon theophrasti
In short: as §1

rice = assay: Test C flooded paddy test; assay type: in vivo, Oryza sativa
In short: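 Injury scored visually against controls on a 0 (no effect) to 100 (complete control) scale, 12 to 14 days after treatment in greenhouse. Flooded paddy plants treated at 2-leaf stage; postemergence plants at 1- to 4-leaf stage, 2 to 18 cm tall.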

yellow nutsedge = assay: Test C pre-/postemergence herbicide test; assay type: in vivo, Cyperus esculentus
In short: as §1

cocklebur = assay: Test C pre-/postemergence herbicide test; assay type: in vivo, Xanthium strumarium
In short: as §1

[1] = 62 g ai/ha, preemergence, scale 0 to 100
[2] = 125 g ai/ha, scale 0 (no effect) to 100 (complete control), visual, 12 to 14 days, preemergence
[3] = 250 g ai/ha, scale 0 to 100 (0 no effect, 100 complete control), visual, 12 to 14 days, preemergence
[4] = Preemergence, 500 g ai/ha, scale 0 to 100, 0 no effect, 100 complete control
[5] = 62 g ai/ha, scale 0 to 100 (0 no effect, 100 complete control)
[6] = 250 g ai/ha, scale of 0 to 100, 0 is no effect, 100 is complete control
[7] = 500 g ai/ha, visual rating after 12 to 14 days, scale 0 to 100 (0 no effect, 100 complete control)
[8] = 125 g ai/ha, scale 0 to 100 (0 no effect, 100 complete control)

Structure (SMILES): CCNC(=O)c1ccc(F)c(NC(=O)C2CN(C(C)(C)C)N=C2CC)c1 (centres unmarked) [Compound 336, 1-(1,1-dimethylethyl)-3-ethyl-N-[5-[(ethylamino)carbonyl]-2-fluorophenyl]-4,5-dihydro-1H-pyrazole-4-carboxamide]
- Corn plant response rating (crop injury, 0 = no effect, 100 = complete kill) at 62 g/ha (corn; Zea mays, pre-emergence, 312 h, 62 g ai/ha, preemergence, scale 0 to 100): 10%
- Corn plant response rating (crop injury, 0 = no effect, 100 = complete kill) at 125 g/ha (corn; Zea mays, pre-emergence, 312 h, 125 g ai/ha, scale 0 (no effect) to 100 (complete control), visual, 12 to 14 days): 35%
- Corn plant response rating (crop injury, 0 = no effect, 100 = complete kill) at 250 g/ha (corn; Zea mays, pre-emergence, 312 h, 250 g ai/ha, scale 0-100): 85%
- Corn plant response rating (crop injury, 0 = no effect, 100 = complete kill) at 500 g/ha (corn; Zea mays, pre-emergence, 312 h, 500 g ai/ha, scale 0 to 100 (0 no effect, 100 complete control), visual, 12 to 14 days): 85%
- pest or weed control at 62 g/ha (common ragweed; Ambrosia artemisiifolia, pre-emergence, 62 g ai/ha, preemergence, scale 0 to 100, read-out: Plant response rating, Ragweed): 30%
- pest or weed control at 250 g/ha (common ragweed; Ambrosia artemisiifolia, pre-emergence, 250 g ai/ha, scale 0-100, read-out: Plant response rating, Ragweed): 80%
- pest or weed control at 500 g/ha (common ragweed; Ambrosia artemisiifolia, pre-emergence, 500 g ai/ha, scale 0 to 100 (0 no effect, 100 complete control), visual, 12 to 14 days, read-out: Plant response rating, Ragweed): 100%
- pest or weed control at 62 g/ha (barnyardgrass; Echinochloa crus-galli, 62 g ai/ha, scale 0 to 100 (0 no effect, 100 complete control), read-out: Barnyardgrass plant response rating): 0%
- pest or weed control at 125 g/ha (barnyardgrass; Echinochloa crus-galli, 125 g ai/ha, scale 0 to 100 (0 no effect, 100 complete control), read-out: Barnyardgrass plant response rating): 0%
- pest or weed control at 250 g/ha (barnyardgrass; Echinochloa crus-galli, 250 g ai/ha, scale of 0 to 100, 0 is no effect, 100 is complete control, read-out: Barnyardgrass plant response rating): 60%
- pest or weed control at 500 g/ha (barnyardgrass; Echinochloa crus-galli, 500 g ai/ha, visual rating after 12 to 14 days, scale 0 to 100 (0 no effect, 100 complete control), read-out: Plant response rating, Barnyardgrass): 80%
- pest or weed control at 62 g/ha (large crabgrass; Digitaria sanguinalis, pre-emergence, 312 h, 62 g ai/ha, preemergence, scale 0 to 100, read-out: Plant response rating, Crabgrass, Large): 100%
- pest or weed control at 125 g/ha (large crabgrass; Digitaria sanguinalis, pre-emergence, 312 h, 125 g ai/ha, scale 0 (no effect) to 100 (complete control), visual, 12 to 14 days, read-out: Plant response rating, Crabgrass, Large): 100%
- pest or weed control at 250 g/ha (large crabgrass; Digitaria sanguinalis, pre-emergence, 312 h, 250 g ai/ha, scale 0-100, read-out: Plant response rating, Crabgrass, Large): 100%
- pest or weed control at 500 g/ha (large crabgrass; Digitaria sanguinalis, pre-emergence, 312 h, 500 g ai/ha, scale 0 to 100 (0 no effect, 100 complete control), visual, 12 to 14 days, read-out: Plant response rating, Crabgrass, Large): 100%
- pest or weed control at 62 g/ha (ducksalad; Heteranthera limosa, 62 g ai/ha, scale 0 to 100, read-out: Ducksalad plant response rating): 45%
- pest or weed control at 125 g/ha (ducksalad; Heteranthera limosa, 125 g ai/ha, scale 0 to 100 (0 no effect, 100 complete control), read-out: Ducksalad plant response rating): 55%
- pest or weed control at 250 g/ha (ducksalad; Heteranthera limosa, 250 g ai/ha, scale of 0 to 100, 0 is no effect, 100 is complete control, read-out: Ducksalad plant response rating): 75%
- pest or weed control at 500 g/ha (ducksalad; Heteranthera limosa, 500 g ai/ha, visual rating after 12 to 14 days, scale 0 to 100 (0 no effect, 100 complete control), read-out: Plant response rating, Ducksalad): 90%
- pest or weed control at 62 g/ha (eastern black nightshade; pre-emergence, 62 g ai/ha, preemergence, scale 0 to 100, read-out: Plant response rating, Nightshade): 85%
- pest or weed control at 125 g/ha (eastern black nightshade; pre-emergence, 125 g ai/ha, scale 0 (no effect) to 100 (complete control), visual, 12 to 14 days, read-out: Plant response rating, Nightshade): 95%
- pest or weed control at 250 g/ha (eastern black nightshade; pre-emergence, 250 g ai/ha, scale 0-100, read-out: Plant response rating, Nightshade): 100%
- pest or weed control at 500 g/ha (eastern black nightshade; pre-emergence, 500 g ai/ha, scale 0 to 100 (0 no effect, 100 complete control), visual, 12 to 14 days, read-out: Plant response rating, Nightshade): 100%
- pest or weed control at 62 g/ha (velvetleaf; Abutilon theophrasti, pre-emergence, 62 g ai/ha, preemergence, scale 0 to 100, read-out: Plant response rating, Velvetleaf): 5%
- pest or weed control at 250 g/ha (velvetleaf; Abutilon theophrasti, pre-emergence, 250 g ai/ha, scale 0-100, read-out: Plant response rating, Velvetleaf): 100%
- pest or weed control at 500 g/ha (velvetleaf; Abutilon theophrasti, pre-emergence, 500 g ai/ha, scale 0 to 100 (0 no effect, 100 complete control), visual, 12 to 14 days, read-out: Plant response rating, Velvetleaf): 100%
- plant injury at 62 g/ha (rice; Oryza sativa, 62 g ai/ha, scale 0 to 100, read-out: Rice plant response rating): 10%
- plant injury at 125 g/ha (rice; Oryza sativa, 125 g ai/ha, scale 0 to 100 (0 no effect, 100 complete control), read-out: Rice plant response rating): 45%
- plant injury at 250 g/ha (rice; Oryza sativa, 250 g ai/ha, scale of 0 to 100, 0 is no effect, 100 is complete control, read-out: Rice plant response rating): 75%
- plant injury at 500 g/ha (rice; Oryza sativa, 500 g ai/ha, visual rating after 12 to 14 days, scale 0 to 100 (0 no effect, 100 complete control), read-out: Plant response rating, Rice): 75%
- pest or weed control at 62 g/ha (yellow nutsedge; Cyperus, pre-emergence, 62 g ai/ha, preemergence, scale 0 to 100, read-out: Plant response rating, Nutsedge, Yellow): 0%
- pest or weed control at 125 g/ha (yellow nutsedge; Cyperus, pre-emergence, 125 g ai/ha, scale 0 (no effect) to 100 (complete control), visual, 12 to 14 days, read-out: Plant response rating, Nutsedge, Yellow): 5%
- pest or weed control at 250 g/ha (yellow nutsedge; Cyperus, pre-emergence, 250 g ai/ha, scale 0-100, read-out: Plant response rating, Nutsedge, Yellow): 20%
- pest or weed control at 500 g/ha (yellow nutsedge; Cyperus, pre-emergence, 500 g ai/ha, scale 0 to 100 (0 no effect, 100 complete control), visual, 12 to 14 days, read-out: Plant response rating, Nutsedge, Yellow): 60%
- pest or weed control at 62 g/ha (cocklebur; Xanthium strumarium, pre-emergence, 312 h, 62 g ai/ha, preemergence, scale 0 to 100, read-out: Plant response rating, Cocklebur): 0%
- pest or weed control at 125 g/ha (cocklebur; Xanthium strumarium, pre-emergence, 312 h, 125 g ai/ha, scale 0 (no effect) to 100 (complete control), visual, 12 to 14 days, read-out: Plant response rating, Cocklebur): 5%
- pest or weed control at 250 g/ha (cocklebur; Xanthium strumarium, pre-emergence, 312 h, 250 g ai/ha, scale 0-100, read-out: Plant response rating, Cocklebur): 30%
- pest or weed control at 500 g/ha (cocklebur; Xanthium strumarium, pre-emergence, 312 h, 500 g ai/ha, scale 0 to 100 (0 no effect, 100 complete control), visual, 12 to 14 days, read-out: Plant response rating, Cocklebur): 50%

Structure (SMILES): CCc1nn(C(C)(C)C)cc1C(=O)Nc1cccc(C(C)=NO)c1 [Compound 188]
- Plant response rating, Corn (corn; [1]): 0
- Plant response rating, Corn (corn; [2]): 0
- Plant response rating, Corn (corn; [3]): 0
- Corn plant response rating (corn; [4]): 5
- Plant response rating, Ragweed (common ragweed; [1]): 0
- Plant response rating, Ragweed (common ragweed; [2]): 65
- Ragweed plant response rating (common ragweed; [4]): 100
- Barnyardgrass plant response rating (barnyardgrass; [5]): 35
- Barnyardgrass plant response rating (barnyardgrass; 125 g ai/ha, scale of 0 to 100, 0 is no effect, 100 is complete control): 55
- Barnyardgrass plant response rating (barnyardgrass; [6]): 75
- Plant response rating, Barnyardgrass (barnyardgrass; [7]): 85
- Plant response rating, Crabgrass, Large (large crabgrass; [1]): 95
- Plant response rating, Crabgrass, Large (large crabgrass; [2]): 95
- Plant response rating, Crabgrass, Large (large crabgrass; [3]): 95
- Crabgrass, Large plant response rating (large crabgrass; [4]): 100
- Ducksalad plant response rating (ducksalad; [5]): 20
- Ducksalad plant response rating (ducksalad; [8]): 65
- Ducksalad plant response rating (ducksalad; [6]): 75
- Plant response rating, Ducksalad (ducksalad; [7]): 85
- Plant response rating, Nightshade (eastern black nightshade; [1]): 80
- Plant response rating, Nightshade (eastern black nightshade; [2]): 95
- Nightshade plant response rating (eastern black nightshade; [4]): 100
- Plant response rating, Velvetleaf (velvetleaf; [1]): 0
- Plant response rating, Velvetleaf (velvetleaf; [2]): 0
- Velvetleaf plant response rating (velvetleaf; [4]): 75
- Rice plant response rating (rice; [5]): 35
- Rice plant response rating (rice; [8]): 45
- Rice plant response rating (rice; [6]): 65
- Plant response rating, Rice (rice; [7]): 75
- Plant response rating, Nutsedge, Yellow (yellow nutsedge; [1]): 0
- Plant response rating, Nutsedge, Yellow (yellow nutsedge; [2]): 0
- Nutsedge, Yellow plant response rating (yellow nutsedge; [4]): 0
- Plant response rating, Cocklebur (cocklebur; [1]): 0
- Plant response rating, Cocklebur (cocklebur; [2]): 0
- Plant response rating, Cocklebur (cocklebur; [3]): 0
- Cocklebur plant response rating (cocklebur; [4]): 0
